Here are results for 2 compounds from US6572751B1, “Method and apparatus for continuous flow isoelectric focusing for purifying biological substances” (priority 1997, dated 2003).

For assay [1], the system named is E. coli and two Streptococcus Spp. The settings on record: disk tests.
Assay [2] in a line: Lysozyme activity of fractions. The class given is biochemical.
Method: For this Exarnple, egg white was collected from 2,000 eggs (about 50 L) and diluted in ice-cold distilled water, up to 150 L. All manipulations were done at 4° C. The solution was filtered and introduced into a 4 L apparatus according to the present invention, and having three working outflow ports (plus two electrode outflows). The contifocuser was initially filled with distilled water. The flow rate was adjusted at 75 ml/min, a DC 1,000 Volts was established, and the initial power of the system was 1.5 W. After adding the crude egg white suspension, the power raised to 10.5 W. The contifocusing lasted 34 hrs. […] This suspension was gradually introduced into a 1 L contifocuser with three working and two electrode outflow ports. The flow rate with distilled water was adjusted at 10 ml/min, 1,000 V/DC. […] The contifocusing lasted 3 days. The outflow nearest to the cathode, at pH 10.5, was collected. […] This fraction of 12 L was thereafter introduced in four fractions onto 200×1500 mm chromatographic columns packed by a molecular sieving gel, Spheron P-200, and 25 ml fractions were collected.

In general, inhibition refers to the relative decrease from the control value, in per cent. The low end stands for a weak effect, the high end for a strong effect. For `CN(C)[C@@H]1C(=O)C(C(N)=O)=C(O)[C@@]2(O)C(=O)C3=C(O)c4c(O)cccc4[C@@](C)(O)[C@H]3C[C@@H]12` [original material, Tetracyclin], the inhibition in assay [1] is 85%.

With “lysozyme: enzyme isolated from egg white by contifocusing”, the protein-splitting activity in assay [2] (first peak after Spheron P-200 gel chromatography) is recorded as 20,000 U/g. For the same compound, the “lysozyme concentration (activity)” value in assay [2] (outflow at pH 10.5 after first contifocusing run) came to 200 U/ml.
